US20190062305A1, “PYRIDYL OR PYRAZINYL COMPOUNDS CARRYING A METHYL-BOUND ALPHA-AMINO ACID AMIDE GROUP” (ABBVIE DEUTSCHLAND GMBH & CO. KG, priority 2015, published 2019)
Where a name gives a salt, the structure may show the parent alone.

Tests used:
5-HT2C receptor = target: T1, 5-HT2C receptor (Homo sapiens, UniProt P28335); assay: Human 5-HT2C functional assay (beta-arrestin2 recruitment, U2OS_HTR2C_β-Arrestin cells); format: cell-based; details: for EC50: beta-arrestin2 recruitment, U2OS_HTR2C_β-Arrestin cells, 1.5 h incubation, read-out: EC50 5-HT2C (potency in functional assay); for Emax: relative efficacy vs response to 10 μM 5-HT or maximal 5-HT effect (100%)
T1 construct: host or cells: U2OS
T1 sequence (P28335 33-458): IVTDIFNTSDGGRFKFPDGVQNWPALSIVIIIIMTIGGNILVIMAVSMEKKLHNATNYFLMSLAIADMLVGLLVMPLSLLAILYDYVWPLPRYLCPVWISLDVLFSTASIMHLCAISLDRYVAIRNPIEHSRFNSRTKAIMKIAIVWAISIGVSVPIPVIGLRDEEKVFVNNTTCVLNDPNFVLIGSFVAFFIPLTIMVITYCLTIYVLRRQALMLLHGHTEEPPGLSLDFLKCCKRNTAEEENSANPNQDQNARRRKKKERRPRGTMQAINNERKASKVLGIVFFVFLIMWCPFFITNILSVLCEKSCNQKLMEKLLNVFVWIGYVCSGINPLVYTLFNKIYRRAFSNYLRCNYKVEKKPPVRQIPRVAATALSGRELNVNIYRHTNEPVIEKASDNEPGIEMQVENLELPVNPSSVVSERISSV
T1 sequence (P32121 whole entry partner): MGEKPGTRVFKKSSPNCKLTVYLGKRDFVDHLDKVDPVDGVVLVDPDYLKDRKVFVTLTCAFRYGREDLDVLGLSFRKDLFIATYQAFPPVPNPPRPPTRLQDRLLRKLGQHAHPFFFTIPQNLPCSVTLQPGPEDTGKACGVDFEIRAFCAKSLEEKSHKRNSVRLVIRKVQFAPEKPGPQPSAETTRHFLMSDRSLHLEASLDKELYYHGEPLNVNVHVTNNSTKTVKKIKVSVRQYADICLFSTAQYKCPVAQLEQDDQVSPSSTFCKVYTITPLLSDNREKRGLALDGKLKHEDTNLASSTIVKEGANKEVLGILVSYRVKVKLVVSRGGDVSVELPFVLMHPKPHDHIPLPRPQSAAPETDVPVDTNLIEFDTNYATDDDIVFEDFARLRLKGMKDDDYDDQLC
How it was run: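 EC50 and relative efficacy came from 4-parameter variable-slope fits, normalised to 10 µM 5-HT or maximal 5-HT response (100%). Luminescent β-galactosidase enzyme-complementation signal was read after 1.5 h compound exposure in U2OS_HTR2C_β-Arrestin cells held in 1% serum medium from the prior day.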

[1] = Metabolic stability in human liver microsomes, unbound intrinsic clearance (Cl int/fu mic); format: in vitro ADME; details: human, liver microsomes, pH 7.4, human liver microsomes 0.25 mg/mL, 0.5 μM compound, NADPH, read-out: Cl int, mic unb. (h) [l/h/kg] (unbound intrinsic clearance, human)
Experimental: Samples of the tested compounds (0.5 μM) were preincubated together with human liver microsomes (0.25 mg of microsomal protein/mL) in 0.05 M potassium phosphate buffer of pH 7.4 in microtiter plates at 37° C. for 5 minutes. The reaction was started by adding NADPH (1.0 mM). After 0, 5, 10, 15, 20 and 30 minutes, an aliquot was removed, the reaction was cooled and stopped by adding twice the amount of quench solution consisting of acetonitrile/methanol 1:1, and containing 0.2 μM carbutamide as internal standard. The samples were frozen until analyzed. The remaining concentration of undegraded test substance was determined by liquid chromatography-tandem mass spectrometry (LC-MS/MS). The half-life (t1/2) was determined from the gradient of the ratio of the signal of (test substance/internal standard)/unit time plot, allowing the calculation of the half-life of the test substance, assuming first order kinetics, from the decrease in the concentration of the compound with time. The microsomal clearance ([…]) was calculated as follows: […]=((ln(2)/t 1⁄2)/Microsomal Protein Concentration (mg/ml))*1000, leading to the unit of uL/min/mg. The scaled clearance (mClin_scaled) was calculated as […]_scaled=m CLint*(Microsomal Yield (mg/kg BW))/1000000*60, leading to the units L/h/kg. The Microsomal Yield is defined by the specifics of the used microsomes. Calculations were modified from references: Di, The Society for Biomolecular Screening, 2003, 453-462; Obach, D M D, 1999 vol 27. N 11, 1350-1359. A suspension of 0.25 mg/ml microsomal protein spiked with 0.5 μM of test compound was pipetted on one side of a HTDialysis device (HTDialysis LLC, 37 Ledgewood Drive, Gales Fery CT 06335) separated by a membrane with a MWcut off 12-14 K. 50 mM K-Phosphate buffer (pH 7.4) was added on the other side of the well. After incubation at 37° C. for 4 h while shaking at 150 rpm, aliquots of both sides were taken, quenched with MeOH/ACN 1:1 and 0.2 μM of internal standard and frozen until analysis by LCMSMS Cl int unbound=Cl int/fu mic

Compound	EC50 (5-HT2C receptor)	Emax (5-HT2C receptor)	CLint scaled at 0.5 μM [1]
COc1nc(OC2CCC(F)(F)CC2)c(F)cc1CNC(=O)C(C)N1CCC1 (stereo not drawn) [Example 43, 2-(Azetidin-1-yl)-N-[[6-(4,4-difluorocyclohexoxy)-5-fluoro-2-methoxy-3-pyridyl]-methyl]propanamide; Succinic Acid]	20 to 200 nM	> 70%	< 5 L/h/kg
COc1nc(OC2CC(F)(F)C2)c(F)cc1CNC(=O)[C@@H]1CCCN1 [Example 44, (2S)—N-[[6-(3,3-Difluorocyclobutoxy)-5-fluoro-2-methoxy-3-pyridyl]methyl]-pyrrolidine-2-carboxamide; Succinic Acid]	< 20 nM	> 70%	< 5 L/h/kg
COc1nc(OCC(F)(F)C(F)F)c(F)cc1CNC(=O)[C@@H]1CCCN1 [Example 46, (2S)—N-[[5-Fluoro-2-methoxy-6-(2,2,3,3-tetrafluoropropoxy)-3-pyridyl]methyl]-pyrrolidine-2-carboxamide; Succinic Acid]	< 20 nM	> 70%	< 5 L/h/kg
COc1nc(OCC2CC(F)(F)C2(F)F)c(F)cc1CNC(=O)[C@@H]1CCCN1 (stereo partly drawn) [Example 47, (2S)—N-[[5-Fluoro-2-methoxy-6-[(2,2,3,3-tetrafluorocyclobutyl)methoxy]-3-pyridyl]methyl]pyrrolidine-2-carboxamide; Succinic Acid]	< 20 nM	> 70%	< 5 L/h/kg
COc1nc(OCC2(C(F)(F)F)CC2)c(F)cc1CNC(=O)[C@@H]1CCCN1 [Example 48, (2S)—N-[[5-Fluoro-2-methoxy-6-[[1-(trifluoromethyl)cyclopropyl]methoxy]-3-pyridyl]methyl]pyrrolidine-2-carboxamide; Succinic Acid]	< 20 nM	> 70%	< 5 L/h/kg
COc1nc(OCC(C)CC(F)(F)F)c(F)cc1CNC(=O)[C@@H]1CCCN1 (stereo partly drawn) [Example 49, (2S)—N-[[5-Fluoro-2-methoxy-6-(4,4,4-trifluoro-2-methyl-butoxy)-3-pyridyl]-methyl]pyrrolidine-2-carboxamide; Succinic Acid]	< 20 nM	> 70%	5 to 50 L/h/kg
COc1nc(OC2CCC(F)(F)CC2)c(F)cc1CNC(=O)[C@H]1CCCN1C [Example 52, (2R)—N-[[6-(4,4-Difluorocyclohexoxy)-5-fluoro-2-methoxy-3-pyridyl]methyl]-1-methyl-pyrrolidine-2-carboxamide Hydrochloride]	20 to 200 nM	> 70%	< 5 L/h/kg
COc1nc(OC(C)C(F)(F)C(F)F)c(F)cc1CNC(=O)[C@@H]1CCCN1 (stereo partly drawn) [Example 53, (2S)—N-[[5-Fluoro-2-methoxy-6-(2,2,3,3-tetrafluoro-1-methyl-propoxy)-3-pyridyl]-methyl]pyrrolidine-2-carboxamide; Succinic Acid]	< 20 nM	> 70%	< 5 L/h/kg
COc1nc(OC2CC3C(C2)C3(F)F)c(F)cc1CNC(=O)[C@@H]1CCCN1 (stereo partly drawn) [Example 54, (2S)—N-[[6-[(6,6-Difluoro-3-bicyclo[3.1.0]hexanyl)oxy]-5-fluoro-2-methoxy-3-pyridyl]methyl]pyrrolidine-2-carboxamide 2,2,2-trifluoroacetic Acid]	< 20 nM	> 70%	< 5 L/h/kg
COc1nc(O[C@@H]2CCCC[C@H]2F)c(F)cc1CNC(=O)[C@@H]1CCCN1 [Example 55, (2S)—N-[[5-Fluoro-6-[(1R,2R)-2-fluorocyclohexoxy]-2-methoxy-3-pyridyl]methyl]pyrrolidine-2-carboxamide; 2,2,2-trifluoroacetic Acid]	< 20 nM	> 70%	< 5 L/h/kg
COc1nc(OCC2CC3C(C2)C3(F)F)c(F)cc1CNC(=O)[C@@H]1CCCN1 (stereo partly drawn) [Example 56, (2S)—N-[[6-[(6,6-Difluoro-3-bicyclo[3.1.0]hexanyl)methoxy]-5-fluoro-2-methoxy-3-pyridyl]methyl]pyrrolidine-2-carboxamide; 2,2,2-trifluoroacetic Acid]	< 20 nM	> 70%	5 to 50 L/h/kg
COc1nc(OC2CCCC(F)(F)C2)c(F)cc1CNC(=O)[C@@H]1CCCN1 (stereo partly drawn) [Example 58, (2S)—N-[[6-(3,3-Difluorocyclohexoxy)-5-fluoro-2-methoxy-3-pyridyl]methyl]-pyrrolidine-2-carboxamide; 2,2,2-trifluoroacetic Acid]	< 20 nM	> 70%	< 5 L/h/kg
COc1nc(OC2CCC(F)(F)CC2)c(F)cc1CNC(=O)[C@@H]1C[C@@H](C)CN1 [Example 59, (2 S,4R)—N-[[6-(4,4-Difluorocyclohexoxy)-5-fluoro-2-methoxy-3-pyridyl]methyl]-4-methyl-pyrrolidine-2-carboxamide Hydrochloride]	< 20 nM	50 to 70%	< 5 L/h/kg
COc1nc(OC2CCC(C(F)(F)F)CC2)c(F)cc1CNC(=O)[C@@H]1C[C@@H](C)CN1 (stereo partly drawn) [Example 60, (2S,4R)—N-[[5-Fluoro-2-methoxy-6-[4-(trifluoromethyl)cyclohexoxy]-3-pyridyl]methyl]-4-methyl-pyrrolidine-2-carboxamide Hydrochloride]	20 to 200 nM	50 to 70%	50 to 500 L/h/kg
COc1nc(OC2CCC(F)(F)CC2)c(F)cc1CNC(=O)[C@@H]1C[C@@H](C)CN1C [Example 61, (2S,4R)—N-[[6-(4,4-Difluorocyclohexoxy)-5-fluoro-2-methoxy-3-pyridyl]methyl]-1,4-dimethyl-pyrrolidine-2-carboxamide Hydrochloride]	20 to 200 nM	> 70%	5 to 50 L/h/kg
COc1nc(OC2CCC(C(F)(F)F)CC2)c(F)cc1CNC(=O)[C@@H]1C[C@@H](C)CN1C (stereo partly drawn) [Example 62, (2S,4R)—N-[[5-Fluoro-2-methoxy-6-[4-(trifluoromethyl)cyclohexoxy]-3-pyridyl]methyl]-1,4-dimethyl-pyrrolidine-2-carboxamide Hydrochloride]	20 to 200 nM	> 70%	50 to 500 L/h/kg
COc1nc(OCC2(C(F)(F)F)CC2)c(F)cc1CNC(=O)[C@@H]1CCCN1C [Example 63, (2S)—N-[[5-Fluoro-2-methoxy-6-[[1-(trifluoromethyl)cyclopropyl]methoxy]-3-pyridyl]methyl]-1-methyl-pyrrolidine-2-carboxamide Hydrochloride]	< 20 nM	> 70%	< 5 L/h/kg
Cc1nc(OC2CCC(C(F)(F)F)CC2)ccc1CNC(=O)C1CCCN1 [Example 65, (S)—N-((2-Methyl-6-(((1R,4S)-4-(trifluoromethyl)cyclohexyl)oxy)pyridin-3-yl)methyl)pyrrolidine-2-carboxamide]	20 to 200 nM	50 to 70%	< 5 L/h/kg
COc1nc(OC2CCC(C(F)F)CC2)c(F)cc1CNC(=O)[C@@H]1CCCN1 (stereo partly drawn) [Example 66, (2S)—N-[[6-[4-(Difluoromethyl)cyclohexoxy]-5-fluoro-2-methoxy-3-pyridyl]methyl]-pyrrolidine-2-carboxamide hydrochloride]	< 20 nM	> 70%	5 to 50 L/h/kg
COc1nc(OCC2CC2(F)F)c(F)cc1CNC(=O)[C@@H]1CCCN1C (stereo partly drawn) [Example 68, (2S)—N-[[6-[(2,2-Difluorocyclopropyl)methoxy]-5-fluoro-2-methoxy-3-pyridyl]-methyl]-1-methyl-pyrrolidine-2-carboxamide Hydrochloride]	< 20 nM	> 70%	< 5 L/h/kg
COc1nc(OC2CC(F)(F)C2)c(F)cc1CNC(=O)[C@@H]1CCCN1C [Example 71, (2S)—N-[[6-(3,3-Difluorocyclobutoxy)-5-fluoro-2-methoxy-3-pyridyl]methyl]-1-methyl-pyrrolidine-2-carboxamide Hydrochloride]	< 20 nM	> 70%	< 5 L/h/kg
COc1nc(OC2CCC(C(C)(F)F)CC2)c(F)cc1CNC(=O)[C@@H]1CCCN1 (stereo partly drawn) [Example 72, (2S)—N-((6-((4-(1,1-Difluoroethyl)cyclohexyl)oxy)-5-fluoro-2-methoxypyridin-3-yl)methyl)pyrrolidine-2-carboxamide 2,2,2-trifluoroacetate]	< 20 nM	> 70%	5 to 50 L/h/kg
